Calls of active or inactive are those of the source.
Key:
[1] = growth induction of Burl-1 ts yeast mutant, dose response, counter-screen for SUMOylation pathway inhibitor project, whole organism, S. cerevisiae, luminescence (AID 463199); assay type: functional
[2] = tested on: HeLa; experiment: HeLa cell cytotoxicity, dose response, cytotoxicity control for MITF activator project, CellTiter-Glo luminescence, cherry-pick samples (AID 540259); assay type: functional, cell-based; conditions: Homo sapiens
[3] = HEp-2 cell cytotoxicity, dose response, cytotoxicity control for RSV inhibitor project, HTS (AID 2410); assay type: functional; conditions: human respiratory syncytial virus
[4] = tested on: Vero; experiment: cells; assay type: functional, cell-based; conditions: Chlorocebus sabaeus
[5] = tested on: A-375; experiment: MITF: Counter assay: A375 proliferation Measured in Cell-Based System Using Plate Reader - 2084-03_Inhibitor_Dose_DryPowder_Activity. [Related pubchem assays (depositor defined):AID488944]; assay type: functional; conditions: Homo sapiens
[6] = tested on: A-375; experiment: A375 melanoma cell viability reduction, dose response, counter-screen for MITF modulator project, cherry-pick samples, set 2 (AID 540335); assay type: functional, cell-based; conditions: Homo sapiens
[7] = tested on: HEK293; experiment: NOD2 signaling inhibitors in MDP-stimulated cells, cell-based, uHTS, luminescence (AID 2001); assay type: functional; conditions: Homo sapiens
[8] = tested on: HEK293; experiment: cells; assay type: functional, cell-based; conditions: Homo sapiens
[9] = tested on: Jurkat; experiment: SAR Analysis of small molecule inhibitors of T-cell specific antigen receptor-induced NF-kB activation in a Jurkat cell line using a luminescence assay - Set 2. [Related pubchem assays (depositor defined):AID435003, AID435012, AID465]; assay type: functional, cell-based; conditions: Homo sapiens
[10] = tested on: HEK293; experiment: SAR Analysis of small molecule inhibitors of T-cell specific antigen receptor-induced NF-kB activation in a HEK-293T cell line using a luminescence assay - Set 2. [Related pubchem assays (depositor defined):AID435003, AID435012, AID489026]; assay type: functional, cell-based; conditions: Homo sapiens
[11] = tested on: HEK293; experiment: cytotoxicity in HEK293T NF-kB-Luc cells, SAR follow-up, cytotoxicity control for NF-kB activator project, cell-based, resazurin fluorescence (AID 493251); assay type: functional; conditions: Homo sapiens
[12] = tested on: HEK293; experiment: NOD1 signaling inhibitors, primary screen, cell-based, luminescence, uHTS (AID 1578); assay type: functional; conditions: Homo sapiens
[13] = tested on: HEK293; experiment: cells; assay type: functional, cell-based; conditions: Homo sapiens; remark: listed apart in the source
[14] = tested on: HEK293; experiment: cells; assay type: functional, cell-based; conditions: Homo sapiens; remark: listed apart in the source
[15] = biological target: T1, Microphthalmia-associated transcription factor (Homo sapiens, UniProt O75030); experiment: TRPM1 promoter luciferase signal decrease, dose response, MITF inhibitor project, cell-based, SK-MEL-5, cherry-picked, set 3 (AID 493073); assay type: functional
T1 sequence (O75030 whole entry): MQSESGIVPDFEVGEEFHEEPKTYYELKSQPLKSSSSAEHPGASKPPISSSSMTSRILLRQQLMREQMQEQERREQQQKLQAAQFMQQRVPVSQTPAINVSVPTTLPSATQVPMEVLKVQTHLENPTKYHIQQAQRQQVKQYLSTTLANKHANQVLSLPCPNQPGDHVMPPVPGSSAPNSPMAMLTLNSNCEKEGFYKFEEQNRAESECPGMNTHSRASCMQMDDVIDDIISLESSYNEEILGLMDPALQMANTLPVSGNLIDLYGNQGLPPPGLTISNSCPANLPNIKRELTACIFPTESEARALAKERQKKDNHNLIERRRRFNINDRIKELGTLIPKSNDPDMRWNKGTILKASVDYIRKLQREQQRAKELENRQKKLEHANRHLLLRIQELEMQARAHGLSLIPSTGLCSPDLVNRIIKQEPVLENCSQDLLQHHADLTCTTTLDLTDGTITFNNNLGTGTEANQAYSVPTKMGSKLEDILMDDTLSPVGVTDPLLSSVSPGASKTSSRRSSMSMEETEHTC

[16] = biological target: Nucleotide-binding oligomerization domain-containing protein 2 (Homo sapiens, UniProt Q9HC29); experiment: NOD2 signaling inhibitors, cell-based, luminescence, uHTS, HEK293 (AID 1566); assay type: functional
Nucleotide-binding oligomerization domain-containing protein 2, sequence (Q9HC29 whole entry, the tested form may be a part): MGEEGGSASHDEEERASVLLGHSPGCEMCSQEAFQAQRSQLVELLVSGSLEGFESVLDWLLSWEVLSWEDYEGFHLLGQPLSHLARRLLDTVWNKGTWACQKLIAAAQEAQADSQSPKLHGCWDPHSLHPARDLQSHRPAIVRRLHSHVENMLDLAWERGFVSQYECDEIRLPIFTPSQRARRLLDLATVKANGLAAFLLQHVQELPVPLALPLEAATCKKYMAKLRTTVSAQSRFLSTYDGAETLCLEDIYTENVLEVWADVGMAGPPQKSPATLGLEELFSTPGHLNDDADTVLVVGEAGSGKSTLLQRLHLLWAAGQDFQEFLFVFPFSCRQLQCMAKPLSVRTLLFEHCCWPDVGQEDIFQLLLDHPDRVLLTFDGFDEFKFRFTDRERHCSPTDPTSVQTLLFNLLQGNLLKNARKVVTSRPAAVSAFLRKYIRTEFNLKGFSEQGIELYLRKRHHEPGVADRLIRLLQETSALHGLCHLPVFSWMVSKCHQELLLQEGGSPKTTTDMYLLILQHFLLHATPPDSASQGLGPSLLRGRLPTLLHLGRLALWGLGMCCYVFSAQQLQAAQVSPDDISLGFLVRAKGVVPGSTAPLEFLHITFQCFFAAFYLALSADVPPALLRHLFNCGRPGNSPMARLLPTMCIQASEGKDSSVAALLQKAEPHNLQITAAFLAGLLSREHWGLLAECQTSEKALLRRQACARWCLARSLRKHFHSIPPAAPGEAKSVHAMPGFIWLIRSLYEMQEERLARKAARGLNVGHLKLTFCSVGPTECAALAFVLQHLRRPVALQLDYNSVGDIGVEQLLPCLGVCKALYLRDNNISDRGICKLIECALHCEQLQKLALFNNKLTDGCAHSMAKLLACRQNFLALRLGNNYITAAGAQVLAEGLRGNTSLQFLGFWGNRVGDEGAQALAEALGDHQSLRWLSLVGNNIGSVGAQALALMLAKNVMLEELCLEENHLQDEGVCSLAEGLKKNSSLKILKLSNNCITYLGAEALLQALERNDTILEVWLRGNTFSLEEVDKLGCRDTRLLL

[17] = biological target: Dual specificity protein kinase CLK1 (Homo sapiens, UniProt P49759); experiment: CLK1 kinase inhibitors, off-target check, dose response, selectivity assay for Dyrk1A inhibitor project, biochemical, cherry-picked samples (AID 588811)
[18] = tested on: Escherichia coli; experiment: microbe, parasite or virus in culture
[19] = biological target: Glycogen synthase kinase-3 alpha (Homo sapiens, UniProt P49840); experiment: Inhibition of Human GSK-3 alpha Activity Measured in Biochemical System Using Microfluidics - 2063-06_Inhibitor_Dose_DryPowder_Activity. [Related pubchem assays (depositor defined):AID2709]
Glycogen synthase kinase-3 alpha, sequence (P49840 whole entry): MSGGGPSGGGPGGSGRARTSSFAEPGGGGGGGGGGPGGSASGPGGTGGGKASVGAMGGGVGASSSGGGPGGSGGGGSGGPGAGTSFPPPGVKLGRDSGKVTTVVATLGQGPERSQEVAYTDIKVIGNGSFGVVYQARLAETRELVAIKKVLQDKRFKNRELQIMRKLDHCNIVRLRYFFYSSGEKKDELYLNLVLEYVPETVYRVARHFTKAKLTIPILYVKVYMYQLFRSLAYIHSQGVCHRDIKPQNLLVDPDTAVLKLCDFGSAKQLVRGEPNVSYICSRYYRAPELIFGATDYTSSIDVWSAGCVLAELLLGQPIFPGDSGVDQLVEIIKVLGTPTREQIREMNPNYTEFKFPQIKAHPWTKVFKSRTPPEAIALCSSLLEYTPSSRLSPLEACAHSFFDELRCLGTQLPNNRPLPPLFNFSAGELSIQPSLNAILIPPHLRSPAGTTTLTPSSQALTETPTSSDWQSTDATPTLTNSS

[20] = biological target: Glycogen synthase kinase-3 beta (Homo sapiens, UniProt P49841); experiment: Inhibition of Human GSK-3 beta Activity Measured in Biochemical System Using Microfluidics - 2063-05_Inhibitor_Dose_DryPowder_Activity. [Related pubchem assays (depositor defined):AID2709]
Glycogen synthase kinase-3 beta, sequence (P49841 whole entry): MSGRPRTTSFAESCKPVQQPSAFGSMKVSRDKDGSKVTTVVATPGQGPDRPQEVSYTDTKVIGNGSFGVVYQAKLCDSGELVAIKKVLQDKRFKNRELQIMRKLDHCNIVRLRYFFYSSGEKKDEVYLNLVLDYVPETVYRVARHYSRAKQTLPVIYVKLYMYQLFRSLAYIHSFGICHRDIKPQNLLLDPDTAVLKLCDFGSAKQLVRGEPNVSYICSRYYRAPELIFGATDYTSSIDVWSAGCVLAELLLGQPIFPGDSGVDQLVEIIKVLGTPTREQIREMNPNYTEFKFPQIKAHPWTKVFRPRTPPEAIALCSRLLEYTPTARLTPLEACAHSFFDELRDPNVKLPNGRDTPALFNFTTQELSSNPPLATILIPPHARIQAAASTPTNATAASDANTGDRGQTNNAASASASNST

[21] = biological target: Trypsin (Sus scrofa, UniProt P00761); experiment: porcine trypsin inhibitors, dose response, selectivity assay for Rce1 protease inhibitor project, biochemical, quenched peptide fluorescence, cherry-pick (AID 488789)
Trypsin, sequence (P00761 whole entry): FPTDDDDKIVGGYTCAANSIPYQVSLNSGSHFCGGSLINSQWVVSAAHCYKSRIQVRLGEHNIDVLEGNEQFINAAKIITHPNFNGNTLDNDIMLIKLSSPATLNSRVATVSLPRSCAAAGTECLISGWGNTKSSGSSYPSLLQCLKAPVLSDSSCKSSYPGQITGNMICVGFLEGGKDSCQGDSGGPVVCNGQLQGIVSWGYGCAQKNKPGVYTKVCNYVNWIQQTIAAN

[22] = biological target: CAAX prenyl protease 2 (Homo sapiens, UniProt Q9Y256); experiment: human Rce1 protease inhibitors, dose response, biochemical, yeast membranes, quenched-peptide fluorescence, cherry-pick (AID 588849)
CAAX prenyl protease 2, sequence (Q9Y256 whole entry): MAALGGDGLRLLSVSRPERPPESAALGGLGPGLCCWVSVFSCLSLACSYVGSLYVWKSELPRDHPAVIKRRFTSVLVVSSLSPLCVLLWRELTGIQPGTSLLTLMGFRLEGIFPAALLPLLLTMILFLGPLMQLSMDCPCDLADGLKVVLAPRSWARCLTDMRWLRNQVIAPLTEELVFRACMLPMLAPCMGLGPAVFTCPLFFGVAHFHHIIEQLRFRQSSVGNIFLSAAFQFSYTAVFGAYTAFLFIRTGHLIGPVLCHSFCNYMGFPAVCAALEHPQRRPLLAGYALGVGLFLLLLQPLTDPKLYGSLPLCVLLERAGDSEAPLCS

[23] = biological target: CAAX prenyl protease 1 (Saccharomyces cerevisiae S288c, UniProt P47154); experiment: Ste24 protease inhibitors, dose response, biochemical, S. cerevisiae, plate reader, cherry-pick (AID 488815)
CAAX prenyl protease 1, sequence (P47154 whole entry): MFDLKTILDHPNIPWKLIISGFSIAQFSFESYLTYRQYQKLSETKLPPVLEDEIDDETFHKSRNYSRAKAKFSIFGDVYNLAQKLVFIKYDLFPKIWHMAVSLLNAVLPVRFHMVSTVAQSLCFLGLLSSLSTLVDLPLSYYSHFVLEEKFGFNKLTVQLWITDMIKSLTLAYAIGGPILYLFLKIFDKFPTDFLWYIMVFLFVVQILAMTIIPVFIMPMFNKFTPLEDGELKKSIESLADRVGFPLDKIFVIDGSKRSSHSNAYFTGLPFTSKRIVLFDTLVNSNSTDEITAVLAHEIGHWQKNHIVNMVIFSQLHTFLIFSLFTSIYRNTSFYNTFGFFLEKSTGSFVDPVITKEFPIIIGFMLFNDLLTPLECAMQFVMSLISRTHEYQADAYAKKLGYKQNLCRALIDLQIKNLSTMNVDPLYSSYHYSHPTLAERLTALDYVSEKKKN

[24] = biological target: Phosphoethanolamine/phosphocholine phosphatase (Homo sapiens, UniProt Q8TCT1); experiment: SAR assay for compounds that inhibit PHOSPHO1. [Related pubchem assays (depositor defined):AID1545, AID1565, AID1574]
Phosphoethanolamine/phosphocholine phosphatase, sequence (Q8TCT1 whole entry): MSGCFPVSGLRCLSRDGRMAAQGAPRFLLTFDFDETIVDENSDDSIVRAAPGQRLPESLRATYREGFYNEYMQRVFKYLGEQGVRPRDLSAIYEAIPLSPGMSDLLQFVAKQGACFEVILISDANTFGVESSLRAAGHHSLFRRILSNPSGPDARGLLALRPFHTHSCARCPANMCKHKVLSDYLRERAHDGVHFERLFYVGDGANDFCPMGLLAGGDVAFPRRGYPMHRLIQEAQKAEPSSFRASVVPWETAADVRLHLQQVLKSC

[25] = biological target: T2, Mannose-6-phosphate isomerase (Homo sapiens, UniProt P34949); experiment: PMI enzyme inhibitors, confirmation, biochemical, fluorescence intensity (AID 1535)
T2 sequence (P34949 whole entry): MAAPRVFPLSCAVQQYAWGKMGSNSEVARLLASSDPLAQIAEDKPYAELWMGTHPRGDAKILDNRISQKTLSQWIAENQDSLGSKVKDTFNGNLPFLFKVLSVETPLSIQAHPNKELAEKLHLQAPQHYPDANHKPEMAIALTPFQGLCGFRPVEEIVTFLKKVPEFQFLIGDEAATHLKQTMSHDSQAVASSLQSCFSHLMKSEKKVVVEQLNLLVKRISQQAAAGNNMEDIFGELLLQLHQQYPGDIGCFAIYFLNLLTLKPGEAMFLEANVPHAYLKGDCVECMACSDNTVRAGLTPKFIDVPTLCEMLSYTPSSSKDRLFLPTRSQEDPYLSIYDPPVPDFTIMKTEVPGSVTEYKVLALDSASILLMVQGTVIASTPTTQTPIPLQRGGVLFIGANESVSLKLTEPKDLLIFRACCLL

[26] = biological target: Phosphomannomutase 2 (Homo sapiens, UniProt O15305); experiment: Counter screen SAR assay for PMM2 inhibitors via a fluorescence intensity assay. [Related pubchem assays (depositor defined):AID1545, AID1574]
[27] = tested on: Escherichia coli; experiment: microbe, parasite or virus in culture; remark: listed apart in the source
[28] = inhibitors of Trypanosoma cruzi host-cell infection, confirmation, beta-gal luminescence, NIH3T3 host cells (AID 2630); assay type: functional, cell-based; conditions: Mus musculus
[29] = tested on: INS1; experiment: protection of INS-1E cells from cytokine death, dose response, ATP luminescence, dry powder (AID 488844); assay type: functional, cell-based; conditions: Rattus norvegicus
[30] = biological target: Dual specificity protein phosphatase 3 (Homo sapiens, UniProt P51452); experiment: SAR VHR1 Fluorescent Assay for In Vitro dose response studies Set 3. [Related pubchem assays (depositor defined):AID1654, AID1661, AID1878]; assay type: functional
[31] = biological target: Mu-type opioid receptor (Homo sapiens, UniProt P35372); experiment: (§1) Counterscreen for agonists of heterodimerization of the mu 1 (OPRM1) and delta 1 (OPRD1) opioid receptors: Luminescence-based cell-based high throughput dose response assay to identify agonists of OPRM1 homodimerization.; assay type: functional
Mu-type opioid receptor, sequence (P35372 whole entry): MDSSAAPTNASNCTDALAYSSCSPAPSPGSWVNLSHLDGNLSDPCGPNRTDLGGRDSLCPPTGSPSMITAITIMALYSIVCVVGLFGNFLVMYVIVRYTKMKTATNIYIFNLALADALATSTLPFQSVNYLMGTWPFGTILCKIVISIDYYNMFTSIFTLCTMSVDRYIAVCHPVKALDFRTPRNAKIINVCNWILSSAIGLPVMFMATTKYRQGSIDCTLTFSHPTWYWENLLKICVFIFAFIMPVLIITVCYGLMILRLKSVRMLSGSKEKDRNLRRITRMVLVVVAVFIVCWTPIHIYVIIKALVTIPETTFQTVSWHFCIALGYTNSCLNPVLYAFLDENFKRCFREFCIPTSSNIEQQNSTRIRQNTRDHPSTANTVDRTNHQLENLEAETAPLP

[32] = biological target: Luciferin 4-monooxygenase (Photinus pyralis, UniProt P08659); experiment: firefly luciferase enzyme inhibitors, dose response, biochemical, luminescence (AID 1891)
Luciferin 4-monooxygenase, sequence (P08659 whole entry): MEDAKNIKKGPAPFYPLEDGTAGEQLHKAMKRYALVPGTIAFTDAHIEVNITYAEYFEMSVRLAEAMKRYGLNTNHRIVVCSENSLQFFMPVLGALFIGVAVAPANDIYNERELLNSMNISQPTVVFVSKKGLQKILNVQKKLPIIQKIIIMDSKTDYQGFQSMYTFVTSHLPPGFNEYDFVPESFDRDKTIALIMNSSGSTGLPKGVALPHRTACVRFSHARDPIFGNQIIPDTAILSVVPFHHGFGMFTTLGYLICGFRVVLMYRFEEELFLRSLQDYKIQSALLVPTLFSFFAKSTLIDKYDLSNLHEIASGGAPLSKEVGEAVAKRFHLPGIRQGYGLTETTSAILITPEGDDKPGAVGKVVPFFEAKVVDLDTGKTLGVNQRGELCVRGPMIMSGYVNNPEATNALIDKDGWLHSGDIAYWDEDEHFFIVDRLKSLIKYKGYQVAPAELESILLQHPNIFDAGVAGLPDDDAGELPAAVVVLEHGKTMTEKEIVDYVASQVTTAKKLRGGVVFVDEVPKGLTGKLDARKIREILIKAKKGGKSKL

[33] = cytotoxicity toward DRD oncogenic fibroblasts, dose response, cell-based, non-viral oncogenic, luminescence (AID 1934); assay type: functional; conditions: Homo sapiens
[34] = Luminescence Cell-Based Dose Confirmation HTS to Identify Inhibitors of Platelet Dense Granule Release. [Related pubchem assays: 1663 (Primary HTS), 1678 (Summary of Project)]; assay type: functional
[35] = biological target: 5-hydroxytryptamine receptor 5A (Homo sapiens, UniProt P47898); experiment: Counterscreen for agonists of OPRM1-OPRD1 heterodimerization: luminescence-based cell-based high throughput dose response assay to identify agonists of 5-hydroxytryptamine (serotonin) 5A receptor (HTR5A). [Related pubchem assays (depositor defined):AID504326, AID504355, AID504692, AID504904, AID504905]; assay type: functional
5-hydroxytryptamine receptor 5A, sequence (P47898 whole entry): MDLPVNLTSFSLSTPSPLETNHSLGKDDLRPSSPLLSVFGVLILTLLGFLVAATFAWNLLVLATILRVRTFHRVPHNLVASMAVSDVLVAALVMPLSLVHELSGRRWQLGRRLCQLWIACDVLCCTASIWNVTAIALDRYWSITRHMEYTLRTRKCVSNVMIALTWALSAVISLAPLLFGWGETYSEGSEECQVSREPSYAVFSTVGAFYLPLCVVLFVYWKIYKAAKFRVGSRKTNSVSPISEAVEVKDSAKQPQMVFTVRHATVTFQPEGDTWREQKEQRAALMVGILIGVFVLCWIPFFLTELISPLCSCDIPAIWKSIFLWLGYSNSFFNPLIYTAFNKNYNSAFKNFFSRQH

[36] = tested on: BJ; experiment: cells; assay type: functional, cell-based; conditions: Homo sapiens
[37] = tested on: BJ; experiment: cytotoxicity toward BJ-TERT-LT-ST fibroblasts, dose response, cell-based, RAS-independent, luminescence (AID 1935); assay type: functional; conditions: Homo sapiens;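 further: BJ fibroblasts immortalized with TERT plus LT and ST oncogenes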
[38] = tested on: BJ; experiment: cytotoxicity toward BJ-TERT fibroblasts, dose response, cell-based, RAS-independent, luminescence (AID 1933); assay type: functional; conditions: Homo sapiens
[39] = biological target: Delta-type opioid receptor (Homo sapiens, UniProt P41143); experiment: as §1, with “of OPRD1” for “of OPRM1”, “homodimerization. [Related pubchem assays (depositor defined):AID504326, AID504355, AID504692, AID504904, AID504905]” for “homodimerization.”; assay type: functional
Delta-type opioid receptor, sequence (P41143 whole entry): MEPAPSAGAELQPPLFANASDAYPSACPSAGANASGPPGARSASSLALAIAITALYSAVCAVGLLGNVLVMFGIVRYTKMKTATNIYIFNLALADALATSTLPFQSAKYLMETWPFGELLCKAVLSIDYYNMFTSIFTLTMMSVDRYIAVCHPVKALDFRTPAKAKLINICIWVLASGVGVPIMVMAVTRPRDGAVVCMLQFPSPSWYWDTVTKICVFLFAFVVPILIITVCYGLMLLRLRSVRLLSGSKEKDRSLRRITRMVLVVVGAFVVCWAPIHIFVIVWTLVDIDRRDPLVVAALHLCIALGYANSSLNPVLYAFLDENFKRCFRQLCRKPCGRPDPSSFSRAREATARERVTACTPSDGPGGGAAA

[40] = tested on: BJ; experiment: cytotoxicity toward Ras-transformed BJeLR fibroblasts, dose response, cell-based, alamar blue fluorescence, cherrypicked samples (AID 2631); assay type: functional; conditions: Homo sapiens;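 further: confirmatory dose-response assay in RAS-dependent BJ fibroblasts engineered with TERT, LT and ST, with cytotoxicity read by fluorescence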

Question: Which AC50 [1] does the source give for C=CCN(C(=O)CNC(=O)c1ccco1)C(C(=O)NC1CCCCC1)c1ccccc1 (stereo not given) here?
Answer: 101 µM (active)

Question: With CC1CCN(c2oc(-c3ccccc3Cl)nc2C#N)CC1 as the molecule, how does the AC50 [2] read?
Answer: 73 µM (active)

Question: For CC(Sc1nnc(Nc2ccccc2)s1)C(=O)Nc1nc(-c2ccccc2)cs1 (stereo not given), which CC50 [3] is on record?
Answer: > 50 µM (active)

Question: What about the IC50 [4] of the same molecule?
Answer: > 25 µM (active)

Question: Which results are given for O=C(NCCNc1ccccc1[N+](=O)[O-])c1cc(F)c(F)cc1Cl?
Answer: AC50 [5]: > 11 µM (active); AC50 [6]: > 11 µM (active)

Question: Which IC50 [7] does the source give for O=C(Nc1ccc2oc(-c3cccnc3)nc2c1)c1ccc([N+](=O)[O-])o1 here?
Answer: 7.39 µM (active)

Question: And the IC50 [8]?
Answer: > 20 µM (inactive)

Question: What about the IC50 [9] of the same molecule?
Answer: 38.7 µM (inactive)

Question: What about the IC50 [10] of the same molecule?
Answer: 51.5 µM (inactive)

Question: What about the IC50 [11] of the same molecule?
Answer: > 80 µM (inactive)

Question: And the EC50 [12]?
Answer: 7.26 µM (active)

Question: And the IC50 [13]?
Answer: > 20 µM (inactive)

Question: And the IC50 [14]?
Answer: 4.02 µM (active)

Question: What about the AC50 [15] of the same molecule?
Answer: 14.2 µM (active)

Question: And the EC50 [16]?
Answer: > 20 µM (inactive)

Question: For Fc1c(-c2ccc3ncnc(NCc4cccs4)c3c2)ccc2c1OCO2, which AC50 [17] is on record?
Answer: 0.057 µM (active)

Question: For Cc1cc(Cl)c(S(=O)(=O)NC(C(=O)O)C(C)C)cc1OCC(=O)NC1CCCCC1 (stereo not given), which AC50 [18] is on record?
Answer: 25.9 µM (active)

Question: Which AC50 [19] does the source give for CCOC(=O)c1nnn(-c2nonc2N)c1CSc1ccc(C)cc1 here?
Answer: 8.32 µM (active)

Question: And the AC50 [20]?
Answer: 1.19 µM (active)

Question: For CC(Oc1ccc2c3c(c(=O)oc2c1)CCCC3)C(=O)NC1CC(C)(C)NC(C)(C)C1 (stereo not given), which AC50 [21] is on record?
Answer: 9.81 µM (active)

Question: What about the AC50 [22] of the same molecule?
Answer: 16.2 µM (active)

Question: And the AC50 [23]?
Answer: 2.88 µM (active)

Question: Which IC50 [24] does the source give for O=C1c2ccccc2C(=O)c2c1ccc1c(=O)n(-c3ccccc3)sc21 here?
Answer: 1.96 µM (inactive)

Question: And the IC50 [25]?
Answer: > 50 µM (inactive)

Question: And the IC50 [26]?
Answer: > 100 µM (inactive)

Question: Which AC50 [27] does the source give for COc1ccc(S(=O)(=O)N2CCN(CC(=O)Nc3c(C)n[nH]c3C)CC2)cc1OC here?
Answer: 62.1 µM (active)

Question: With COc1ccc(C(=O)C2CCCN(CC3CCCCC3)C2)cc1OC (stereo not given) as the molecule, how does the EC50 [28] read?
Answer: 0.452 µM (active)

Question: Which AC50 [29] does the source give for C[C@@H]1CN([C@H](C)CO)C(=O)c2cccc(NC(=O)Nc3ccccc3)c2O[C@H]1CN(C)S(=O)(=O)c1ccc(F)cc1 here?
Answer: 38.3 µM (active)

Question: Which IC50 [30] does the source give for COc1cccc2sc(NC(=O)c3ccccc3)nc12 here?
Answer: > 66 µM (inactive)

Question: What does the source list for Cc1occc1C(=O)N/N=C/c1ccc(-c2ccccc2)cc1?
Answer: EC50 [31]: > 92.4 µM (inactive); EC50 [32]: 0.151 µM (active); EC50 [33]: 3.41 µM (active); EC50 [34]: 0.897 µM (active); EC50 [35]: > 92.4 µM (inactive); EC50 [36]: 3.14 µM (active); EC50 [37]: 10.3 µM (active); EC50 [38]: 4.43 µM (active); EC50 [39]: > 92.4 µM (inactive); EC50 [40]: > 133 µM (inactive)

Source: ChEMBL document CHEMBL1201862, “PubChem BioAssay data set” (2004)
